Experimental data taken from patent US20090018156A1, “Pyrrolo [2,3,B] Pyridine Derivatives Useful As RAF Kinase Inhibitors” (priority 2006, published 2009).
Read-outs that look alike come from different tables or passages of the source.

Test system: B-Raf mediated phosphorylation of MEK1
Experiment: Cellular assay of B-Raf mediated phosphorylation of MEK1 in co-transfected 3T3 cells
Assay type: cell-based
Conditions: Mus musculus, NIH3T3, 2 h, two hours exposure, anti-phospho-MEK1/2 immunoassay
Description: B-Raf mediated phosphorylation of MEK1 was measured in a cellular assay. Expression constructs for B-Raf and FLAG-tagged MEK1 (a B-raf substrate) were co-transfected in 3T3 cells and gene expression was induced using the GeneSwitch™ system for inducible mammalian expression (Invitrogen). Four hours following the induction of expression of B-Raf and MEK1, cells were exposed to the test compounds for two hours. The cells were then lysed, and then an immunoassay was performed using anti-phospho-MEK1/2 (Cell Signaling Technlogoies) to detect the percent inhibition of MEK1 phosphorylation.

[1] = 3T3 cells co-transfected with B-Raf and FLAG-tagged MEK1, read-out: Potency (IC50, inhibition of MEK1 phosphorylation)
[2] = read-out: Potency (IC50, inhibition of MEK1 phosphorylation), 3T3 cells co-transfected with B-Raf and FLAG-tagged MEK1

Row | SMILES | IC50 [1] | IC50 [2]
1 | CCn1cc(-c2ccnc3[nH]ccc23)c(-c2cccc(NC(=O)Nc3c(F)cccc3F)c2)n1 [Example 6, N-(2,6-Difluorophenyl)-N-{3-[1-ethyl-4-(1H-pyrrolo[2,3-b]pyridin-4-yl)-1H-pyrazol-3-yl]phenyl}urea] | < 6 µM | –
2 | CCn1cc(-c2ccnc3[nH]ccc23)c(-c2cccc(NC(=O)NC3CCCCC3)c2)n1 [Example 8, N-Cyclohexyl-N-{3-[1-ethyl-4-(1H-pyrrolo[2,3-b]pyridin-4-yl)-1H-pyrazol-3-yl]phenyl}urea] | – | < 6 µM
3 | CCn1cc(-c2ccnc3[nH]cc(Cl)c23)c(-c2cccc(NC(=O)Nc3ccccc3)c2)n1 [Example 13, N-{3-[4-(3-Chloro-1H-pyrrolo[2,3-b]pyridin-4-yl)-1-ethyl-1H-pyrazol-3-yl]phenyl}-N-phenylurea] | > 6 µM | –

Continued, values first:

Row | IC50 [1] | IC50 [2] | SMILES
4 | – | < 6 µM | CCn1cc(-c2ccnc3[nH]ccc23)c(-c2cccc(NC(=O)NCc3ccccc3)c2)n1 [Example 9, N-{3-[1-Ethyl-4-(1H-pyrrolo[2,3-b]pyridin-4-yl)-1H-pyrazol-3-yl]phenyl}-N-(phenylmethyl)urea]
5 | < 6 µM | – | CCn1cc(-c2ccnc3[nH]cc(Br)c23)c(-c2cccc(NC(=O)Nc3ccccc3)c2)n1 [Example 14, N-{3-[4-(3-Bromo-1H-pyrrolo[2,3-b]pyridin-4-yl)-1-ethyl-1H-pyrazol-3-yl]phenyl}-N-phenylurea]
